Laboratory results from the NIST ThermoML archive (doi:10.1021/je4003256).
± gives the expanded uncertainty stated by the source.

Details: 101.33 kPa, Liquid; for speed of sound: Pulse-echo method; for mass density: Vibrating tube method

Oc1ccccc1 [phenol]
Details | mass density [kg/m3] | speed of sound [m/s]
318.15 K | 1054.1 ± 0.27 | 1437.2 ± 1.3
323.15 K | 1049.81 ± 0.27 | 1422.1 ± 1.3
328.15 K | 1045.5 ± 0.27 | 1406.8 ± 1.2
333.15 K | 1041.16 ± 0.26 | 1391.4 ± 1.2
338.15 K | 1036.79 ± 0.26 | 1376.1 ± 1.2
343.15 K | 1032.4 ± 0.26 | 1360.6 ± 1.2

COc1ccccc1O [2-methoxyphenol]
Details | mass density [kg/m3] | speed of sound [m/s]
288.15 K | 1138.64 ± 0.34 | 1567.6 ± 1.3
293.15 K | 1133.81 ± 0.34 | 1548.3 ± 1.3
298.15 K | 1128.96 ± 0.34 | 1528.7 ± 1.3
303.15 K | 1124.11 ± 0.33 | 1509.3 ± 1.3
308.15 K | 1119.25 ± 0.33 | 1490 ± 1.3
313.15 K | 1114.38 ± 0.32 | 1470.7 ± 1.3
318.15 K | 1109.51 ± 0.32 | 1451.5 ± 1.3
323.15 K | 1104.63 ± 0.32 | 1432.4 ± 1.3
328.15 K | 1099.74 ± 0.31 | 1413.5 ± 1.3
333.15 K | 1094.84 ± 0.31 | 1394.6 ± 1.2
338.15 K | 1089.94 ± 0.3 | 1375.8 ± 1.2
343.15 K | 1085.02 ± 0.3 | 1357.1 ± 1.2

COC(=O)c1ccccc1O [methyl 2-hydroxybenzoate]
Details | mass density [kg/m3] | speed of sound [m/s]
288.15 K | 1189.32 ± 0.39 | 1447.6 ± 1.3
293.15 K | 1184.33 ± 0.38 | 1429.1 ± 1.3
298.15 K | 1179.34 ± 0.38 | 1410.6 ± 1.3
303.15 K | 1174.35 ± 0.37 | 1392.3 ± 1.2
308.15 K | 1169.37 ± 0.37 | 1374 ± 1.2
313.15 K | 1164.38 ± 0.36 | 1356 ± 1.2
318.15 K | 1159.4 ± 0.36 | 1338.1 ± 1.2
323.15 K | 1154.42 ± 0.36 | 1320.4 ± 1.2
328.15 K | 1149.45 ± 0.35 | 1302.8 ± 1.2
333.15 K | 1144.46 ± 0.35 | 1285.4 ± 1.2
338.15 K | 1139.47 ± 0.34 | 1268.1 ± 1.2
343.15 K | 1134.49 ± 0.34 | 1250.9 ± 1.2

Cc1ccccc1O [2-methylphenol]
Details | mass density [kg/m3] | speed of sound [m/s]
293.15 K | 1045.77 ± 0.27 | 1522.6 ± 1.3
298.15 K | 1041.41 ± 0.26 | 1505.5 ± 1.3
303.15 K | 1037.05 ± 0.26 | 1488.2 ± 1.3
308.15 K | 1032.64 ± 0.26 | 1470.2 ± 1.3
313.15 K | 1028.25 ± 0.25 | 1452.7 ± 1.3
318.15 K | 1023.83 ± 0.25 | 1435.2 ± 1.3
323.15 K | 1019.39 ± 0.24 | 1417.7 ± 1.3
328.15 K | 1014.93 ± 0.24 | 1400.2 ± 1.2
333.15 K | 1010.46 ± 0.24 | 1382.8 ± 1.2
338.15 K | 1005.97 ± 0.23 | 1365.3 ± 1.2
343.15 K | 1001.46 ± 0.23 | 1347.7 ± 1.2

Cc1ccc(O)cc1 [4-methylphenol]
Details | mass density [kg/m3] | speed of sound [m/s]
293.15 K | 1034.09 ± 0.91 | 1502.9 ± 2.1
298.15 K | 1030.25 ± 0.9 | 1487.2 ± 2.1
303.15 K | 1026.39 ± 0.89 | 1471.4 ± 2.1
308.15 K | 1022.5 ± 0.88 | 1455.6 ± 2.1
313.15 K | 1018.59 ± 0.88 | 1440 ± 2.1
318.15 K | 1014.66 ± 0.87 | 1424.3 ± 2.1
323.15 K | 1010.7 ± 0.86 | 1408.7 ± 2.1
328.15 K | 1006.72 ± 0.85 | 1393 ± 2.1
333.15 K | 1002.7 ± 0.84 | 1377.4 ± 2.1
338.15 K | 998.659 ± 0.84 | 1361.8 ± 2.1
343.15 K | 994.587 ± 0.83 | 1346.2 ± 2.1

Cc1cccc(O)c1 [3-methylphenol]
Details | mass density [kg/m3] | speed of sound [m/s]
293.15 K | 1033.84 ± 0.26 | 1497.9 ± 1.3
298.15 K | 1029.91 ± 0.25 | 1481.9 ± 1.3
303.15 K | 1025.96 ± 0.25 | 1466.2 ± 1.3
308.15 K | 1021.99 ± 0.25 | 1450.5 ± 1.3
313.15 K | 1018 ± 0.24 | 1435 ± 1.3
318.15 K | 1013.99 ± 0.24 | 1419.5 ± 1.3
323.15 K | 1009.97 ± 0.24 | 1403.9 ± 1.2
328.15 K | 1005.91 ± 0.23 | 1388.4 ± 1.2
333.15 K | 1001.84 ± 0.23 | 1372.9 ± 1.2
338.15 K | 997.743 ± 0.23 | 1357.3 ± 1.2
343.15 K | 993.626 ± 0.23 | 1341.8 ± 1.2

C=CCc1ccc(O)c(OC)c1 [2-hydroxy-5-allylanisole]
Details | mass density [kg/m3] | speed of sound [m/s]
288.15 K | 1070.9 ± 0.29 | 1515.3 ± 1.3
293.15 K | 1066.48 ± 0.28 | 1497 ± 1.3
298.15 K | 1062.06 ± 0.28 | 1478.7 ± 1.3
303.15 K | 1057.64 ± 0.28 | 1460.3 ± 1.3
308.15 K | 1053.21 ± 0.27 | 1442.2 ± 1.3
313.15 K | 1048.78 ± 0.27 | 1424.1 ± 1.3
318.15 K | 1044.35 ± 0.27 | 1406.1 ± 1.2
323.15 K | 1039.92 ± 0.26 | 1388.2 ± 1.2
328.15 K | 1035.48 ± 0.26 | 1370.5 ± 1.2
333.15 K | 1031.04 ± 0.25 | 1352.8 ± 1.2
338.15 K | 1026.6 ± 0.25 | 1335.2 ± 1.2
343.15 K | 1022.15 ± 0.25 | 1317.8 ± 1.2
